pEC50, pIC50: −log10 of the molar value. Read-outs that look alike come from different tables or passages of the source. Each block holds one compound with its values, some of them ahead of it.
Assays:
in vivo = assay: in vivo; parameters: species or system Female NIH-Swiss mice; details: mouse, ip, 100 mg/kg
Procedure: FIG. 7. Mouse serum concentration of AZT following administration of AZT or AZTDP-DL-PTBA Female NIH-Swiss mice weighing 25-30 g were administered i.p. with AZT (100 mg/kg) or AZTDP-DL-PTBA (394 mg/kg, equivalent to 100 mg/kg AZT). Three mice were sacrificed at the designated time (up to 24 hr) and AZT in the serum was analyzed by a HPLC method.
Female NIH-Swiss mice weighing 25-30 g were administered intraperitoneally (i.p.) with 394 mg/kg of AZTDP-DL-PTBA (equivalent to 100 mg/kg AZT). Three mice were sacrificed at the designated time (up to 24 hours) and AZT in the serum was analyzed by an HPLC method. […] The intact conjugate level in the serum was unable to be checked by the HPLC method.

[1] = Cytotoxicity to uninfected CEM cells (toxicity control of the anti-HIV assay); type: cell-based; details: human; for CC50: CEM cells, read-out: cytotoxicity (IC50); for CC50 at 144 h: uninfected CEM-IW cells, 6 days, XTT, Tables 1-4, read-out: 1C50(Molar) (cytotoxicity)
From the text: (§1) FIG. 3. Anti-HIV activity of AZTDP-DL-PTBA from the National Cancer Institute Developmental Therapeutics Program In-Vitro Testing Results; NSC 648540-S/1; Plate 5440; Lab 9N; SSPL:129N; Primary Screen Assay; Test Date, Jan. 21, 1992; Solubility Ind.: 1; Report Date, Apr. 27, 1992; Cell Line, CEM-IW; Solvent: Saline<0.9% (MEDIA).
as §1, with “4.” for “3.”, “AZddUDP-DL-PTBA” for “AZTDP-DL-PTBA”, “NSC: 648541-T/1;” for “NSC 648540-S/1;”, “5466;” for “5440;”, “SSPL: 129N;” for “SSPL:129N;”, “Line:” for “Line,”
(§2) FIG. 5. Anti-HIV activity of ddCDP-DL-PTBA from the National Cancer Institute Developmental Therapeutic Program In-Vitro Testing Results; NSC: D- 652872-A/1; Plate 24; Lab 9N; Primary Screen Assay; Test Date, Jul. 23, 1992; Solubility Ind.: 1; Report Date: Aug. 7, 1992; Cell Line: CEM-IW; Solvent: Saline<0.9% (MEDIA).
(§3) FIG. 6. Anti-HIV activity of AZTDP-DL-PMA from the National Cancer Institute Developmental Therapeutics Program In-Vitro Testing Results; NSC: D- 652873-C/1; Plate 24; Lab 9N; SSPL: 129N; Primary Screen Assay; Test Date, Jul. 23, 1992; Solubility Ind.: 1; Report Date, Sep. 11, 1992; Cell Line: CEM-IW; Solvent: Saline<0.9% (MEDIA).
(§4) The procedure is designed to detect agents acting at any stage of the virus reproductive cycle (Weislow, et al., J. Natl. Cancer Inst. 81, 577, 1989). The assay basically involves the killing of T4 lymphocytes by HIV. Small amounts of HIV are added to cells, and a complete cycle of virus reproduction is necessary to obtain the required cell killing. Agents that interact with virions, cells, or virus gene-products to interfere with viral activities will protect cells from cytolysis. Compounds that degenerate or are rapidly metabolized in the culture conditions may not show activity in this screen. All tests are compared with at least one positive (e.g., AZT-treated) control done at the same time under identical conditions.
(§5) Compound was dissolved in DMSO then diluted 1:100 in cell culture medium before preparing serial half-log10 dilutions. T4 lymphocytes (CEM cell line) were added and after a brief interval HIV-1 was added, resulting in a 1:200 final dilution of the compound. Uninfected cells with the compound served as a toxicity control, and infected and uninfected without the compound served as basic controls. Cultures were incubated at 37° C. in a 5% CO2 atmosphere for 6 days. The tetrazolium salt, XTT, was added to the wells, and cultures were incubated to allow formazan color development by viable cells. Individual wells were analyzed spectrophotometrically to quantitate formazan production, and in addition were viewed microscopically for detection of viable cells and confirmation of protective activity. Drug-treated virus-infected cells were compared with drug-treated noninfected cells and with other appropriate controls (untreated infected and untreated noninfected cells, drug-containing wells without cells, etc.) on the same plate. Data were reviewed in comparison with other tests done at the same time and a determination about activity was made.

HIV-1 [2] = assay: microbe, parasite or virus in culture; type: cell-based; details: for Conclusion: NCI screen conclusion, Tables 1-4; for conclusion / reported as anti-HIV drug: NCI screening results
From the text: as §1
as §1, with “4.” for “3.”, “AZddUDP-DL-PTBA” for “AZTDP-DL-PTBA”, “NSC: 648541-T/1;” for “NSC 648540-S/1;”, “5466;” for “5440;”, “SSPL: 129N;” for “SSPL:129N;”, “Line:” for “Line,”
as §2, §3
Anti-HIV evaluation for the compounds was performed at the National Cancer Institute, National Institute of Health and is presented in FIGS. 3-6.
as §4, §5

HIV-infected U937 = details: liposomal, range over the compounds named, read-out: IC50, antiretroviral activity; cited from earlier work
HIV-infected CEM cells = details: liposomal, range over the compounds named, read-out: IC50, antiretroviral activity; cited from earlier work
HIV-1 [3] = details: cited from earlier work
[4] = Human immunodeficiency virus 1, CCRF-CEM, 144 h, read-out: EC50(Molar)
[5] = Human immunodeficiency virus 1, CCRF-CEM, read-out: 50% of the protection (EC50)

- half-life (in vivo): 18.6 min
Compound: Cc1cn([C@H]2C[C@H](N=[N+]=[N-])[C@@H](CO)O2)c(=O)[nH]c1=O [AZT, 3'-azido-3'-deoxythymidine, reference compound]

Compound: CCCCCCCCCCCCCCCCCCSCC(COP(=O)(O)OP(=O)(O)OC[C@@H]1CC[C@H](n2ccc(N)nc2=O)O1)OC(=O)CCCCCCCCCCCCCCC (mixture of isomers) [ddCDP-DL-PTBA, 2',3'-Dideoxycytidine-5'-diphosphate-rac-1-S-octadecyl-2-O-palmitoyl-1-thioglycerol]
- viability at 200 µM ([1]; uninfected cem cells, dose 2.00 × 10^-4 Molar (Table 3), read-out: UNINFECTED RESPONSE Percent of Control): 137%
- viability at 630 µM ([1]; uninfected cem cells, dose 6.30 × 10^-4 Molar (Table 3), read-out: UNINFECTED RESPONSE Percent of Control): 125%
- viability at 63 µM ([1]; uninfected cem cells, dose 6.30 × 10^-5 Molar (Table 3), read-out: UNINFECTED RESPONSE Percent of Control): 130%
- CC50 [1]: 2800 µM
- CC50 at 144 h [1]: 2800 µM
- pEC50 (HIV-1 [2]; [4]): 3.89
- pEC50 (HIV-1 [2]; [5]): 3.89
- viability at 200 µM (HIV-1 [2]; Human immunodeficiency virus 1, CCRF-CEM, dose 2.00 × 10^-4 Molar (Table 3), read-out: INFECTED RESPONSE Percent of Control): 78%
- viability at 630 µM (HIV-1 [2]; Human immunodeficiency virus 1, CCRF-CEM, dose 6.30 × 10^-4 Molar (Table 3), read-out: INFECTED RESPONSE Percent of Control): 98.7%
- viability at 63 µM (HIV-1 [2]; Human immunodeficiency virus 1, CCRF-CEM, dose 6.30 × 10^-5 Molar (Table 3), read-out: INFECTED RESPONSE Percent of Control): 10.2%
- Conclusion (HIV-1 [2]): CONFIRMED ACTIVE
- conclusion / reported as anti-HIV drug (HIV-1 [2]): moderate
- TI50(IC/EC) (HIV-1 [2]; ratio IC50/EC50, Tables 2-3): 2.10 × 10^+1

Compound: CCCCCCCCCCCCCC(=O)OCC(COP(=O)(O)OC[C@@H]1CC[C@H](n2ccc(N)nc2=O)O1)OC(=O)CCCCCCCCCCCCC (stereo partly shown) [dimyristoylphosphatidylddC]
- pIC50 (HIV-infected U937): 4.92 to 6.70
- pIC50 (HIV-infected CEM cells): 4.66 to 5.77

Compound: AZT dipalmitoylglycerol
- pIC50 (HIV-infected U937): 4.92 to 6.70
- pIC50 (HIV-infected CEM cells): 4.66 to 5.77

Compound: CCCCCCCCCCCCCCCCCCSCC(COP(=O)(O)OP(=O)(O)OC[C@H]1O[C@@H](n2ccc(=O)[nH]c2=O)C[C@@H]1N=[N+]=[N-])OC(=O)CCCCCCCCCCCCCCC (mixture of isomers) [AZddUDP-DL-PTBA, 3'-Azido-2',3'-dideoxyuridine-5'-diphosphate-rac-1-S-octadecyl-2-O-palmitoyl-1-thioglycerol]
- viability at 180 µM ([1]; uninfected cem cells, dose 1.80 × 10^-4 Molar (Tables 1, 2), read-out: UNINFECTED RESPONSE Percent of Control): 138%
- viability at 18 µM ([1]; uninfected cem cells, dose 1.80 × 10^-5 Molar (Tables 1, 2), read-out: UNINFECTED RESPONSE Percent of Control): 98.6%
- viability at 1.8 µM ([1]; uninfected cem cells, dose 1.80 × 10^-6 Molar (Tables 1, 2), read-out: UNINFECTED RESPONSE Percent of Control): 96.6%
- viability at 580 µM ([1]; uninfected cem cells, dose 5.80 × 10^-4 Molar (Tables 1, 2), read-out: UNINFECTED RESPONSE Percent of Control): 5.01%
- viability at 58 µM ([1]; uninfected cem cells, dose 5.80 × 10^-5 Molar (Tables 1, 2), read-out: UNINFECTED RESPONSE Percent of Control): 107%
- viability at 5.8 µM ([1]; uninfected cem cells, dose 5.80 × 10^-6 Molar (Tables 1, 2), read-out: UNINFECTED RESPONSE Percent of Control): 94.6%
- viability at 0.58 µM ([1]; uninfected cem cells, dose 5.80 × 10^-7 Molar (Tables 1, 2), read-out: UNINFECTED RESPONSE Percent of Control): 94.6%
- CC50 [1]: 390 µM
- CC50 at 144 h [1]: 590 µM
- pEC50 (HIV-1 [2]; [4]): 4.23
- pEC50 (HIV-1 [2]; [5]): 4.23
- viability at 180 µM (HIV-1 [2]; Human immunodeficiency virus 1, CCRF-CEM, dose 1.80 × 10^-4 Molar (Tables 1, 2), read-out: INFECTED RESPONSE Percent of Control): 103%
- viability at 18 µM (HIV-1 [2]; Human immunodeficiency virus 1, CCRF-CEM, dose 1.80 × 10^-5 Molar (Tables 1, 2), read-out: INFECTED RESPONSE Percent of Control): 11.1%
- viability at 1.8 µM (HIV-1 [2]; Human immunodeficiency virus 1, CCRF-CEM, dose 1.80 × 10^-6 Molar (Tables 1, 2), read-out: INFECTED RESPONSE Percent of Control): 4.68%
- viability at 580 µM (HIV-1 [2]; Human immunodeficiency virus 1, CCRF-CEM, dose 5.80 × 10^-4 Molar (Tables 1, 2), read-out: INFECTED RESPONSE Percent of Control): 7.96%
- viability at 58 µM (HIV-1 [2]; Human immunodeficiency virus 1, CCRF-CEM, dose 5.80 × 10^-5 Molar (Tables 1, 2), read-out: INFECTED RESPONSE Percent of Control): 50.6%
- viability at 5.8 µM (HIV-1 [2]; Human immunodeficiency virus 1, CCRF-CEM, dose 5.80 × 10^-6 Molar (Tables 1, 2), read-out: INFECTED RESPONSE Percent of Control): 6.2%
- viability at 0.58 µM (HIV-1 [2]; Human immunodeficiency virus 1, CCRF-CEM, dose 5.80 × 10^-7 Molar (Tables 1, 2), read-out: INFECTED RESPONSE Percent of Control): 2.69%
- Conclusion (HIV-1 [2]): CONFIRMED ACTIVE
- conclusion / reported as anti-HIV drug (HIV-1 [2]): moderate

Compound: CCCCCCCCCCCCCC(=O)OCC(COP(=O)(O)OC[C@@H]1CC[C@H](n2cc(C)c(=O)[nH]c2=O)O1)OC(=O)CCCCCCCCCCCCC (stereo partly shown) [dimyristoylphosphatidylddT]
- pIC50 (HIV-infected U937): 4.92 to 6.70
- pIC50 (HIV-infected CEM cells): 4.66 to 5.77

Compound: CCCCCCCCCCCCCCCC(=O)OC(COCCCCCCCCCCCCCC)COP(=O)(O)OP(=O)(O)OC[C@H]1O[C@@H](n2cc(C)c(=O)[nH]c2=O)C[C@@H]1N=[N+]=[N-] (mixture of isomers) [AZTDP-DL-PMA, 3'-Azido-3'-deoxythymidine-5'-diphosphate-rac-1-O-tetradecyl-2-O-palmitoylglycerol]
- viability at 180 µM ([1]; uninfected cem cells, dose 1.80 × 10^-4 Molar (Table 4), read-out: UNINFECTED RESPONSE Percent of Control): 109%
- viability at 570 µM ([1]; uninfected cem cells, dose 5.70 × 10^-4 Molar (Table 4), read-out: UNINFECTED RESPONSE Percent of Control): 109%
- viability at 57 µM ([1]; uninfected cem cells, dose 5.70 × 10^-5 Molar (Table 4), read-out: UNINFECTED RESPONSE Percent of Control): 114%
- CC50 [1]: 14000 µM
- CC50 at 144 h [1]: 14000 µM
- pEC50 (HIV-1 [2]; [5]): 4.24
- viability at 180 µM (HIV-1 [2]; Human immunodeficiency virus 1, CCRF-CEM, dose 1.80 × 10^-4 Molar (Table 4), read-out: INFECTED RESPONSE Percent of Control): 66.8%
- viability at 570 µM (HIV-1 [2]; Human immunodeficiency virus 1, CCRF-CEM, dose 5.70 × 10^-4 Molar (Table 4), read-out: INFECTED RESPONSE Percent of Control): 90.7%
- viability at 57 µM (HIV-1 [2]; Human immunodeficiency virus 1, CCRF-CEM, dose 5.70 × 10^-5 Molar (Table 4), read-out: INFECTED RESPONSE Percent of Control): 55.8%
- Conclusion (HIV-1 [2]): CONFIRMED ACTIVE
- conclusion / reported as anti-HIV drug (HIV-1 [2]): moderate

Compound: CCCCCCCCCCCCCC(=O)OCC(COP(=O)(O)OC[C@H]1O[C@@H](n2cc(C)c(=O)[nH]c2=O)C[C@@H]1N=[N+]=[N-])OC(=O)CCCCCCCCCCCCC (stereo partly shown) [Dimyristoyl-phosphatidylAZT]
- pIC50 (HIV-infected U937): 4.92 to 6.70
- pIC50 (HIV-infected CEM cells): 4.66 to 5.77

Compound: COCCCCCCCCCCCC(=O)O [13-Oxamyristic acid, 12-methoxydodecanoic acid]
- effectiveness among myristate analogs (HIV-1 [3]): the most effective
- reverse transcriptase activity, p24 levels, and syncytia formation (HIV-1 [3]): concentration-dependent decrease in reverse transcriptase activity, p24 levels, and syncytia formation
